Results published in patent publication US8574563B2 (Bristol-Myers Squibb Company, priority 2006, dated 2013).

The compounds below were run on HCV 1b-377-neo replicon cells (assay: HCV replicon assay, HCV 1b-377-neo replicon cells (1b FRET)). Settings: HCV 1b-377-neo replicon cells; HCV 1b genotype; read-out: EC50 range against HCV 1b (Table 2, Range).
Type: cell-based, Hepatitis C virus genotype 1b
How it was run: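 Compounds were tested in genotype 1b subgenomic replicon cells carrying a neomycin marker, alongside a matched replicon line with an NS5A Y2065H substitution that confers resistance to a reference NS5A inhibitor.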
Compound `COC(=O)NC(C(=O)N1CCCC1c1nc(-c2ccc(-c3ccc(-c4cnc(C5CCCN5C(=O)CN5CCCC5)[nH]4)cc3)cc2)c[nH]1)c1ccccc1` [Example 58, methyl ((1R)-2-oxo-1-phenyl-2-((2S)-2-(5-(4′-(2-((2S)-1-(1-pyrrolidinylacetyl)-2-pyrrolidinyl)-1H-imidazol-5-yl)-4-biphenylyl)-1H-imidazol-2-yl)-1-pyrrolidinyl)ethyl)carbamate] has an EC50 of 0.001 to 0.999 nM.

Same assay, conditions: Hepatitis C virus, HCV 1b-377-neo replicon cells; HCV 1b genotype; read-out: EC50 range against HCV 1b (Table 2, Range)
`CCN(CC)[C@H]1CC[C@@H](C(=O)N2CCC[C@H]2c2ncc(-c3ccc(-c4ccc(-c5cnc([C@@H]6CCCN6C(=O)[C@H](C)NC(=O)OC)[nH]5)cc4)cc3)[nH]2)CC1` [cj-74, methyl ((1S)-2-((2S)-2-(5-(4′-(2-((2S)-1-((cis-4-(diethylamino)cyclohexyl)carbonyl)-2-pyrrolidinyl)-1H-imidazol-5-yl)-4-biphenylyl)-1H-imidazol-2-yl)-1-pyrrolidinyl)-1-methyl-2-oxoethyl)carbamate] gave an EC50 of 1 to 99 nM.
In the case of `COC(=O)N[C@H](C(=O)N1CCC[C@H]1c1ncc(-c2ccc(-c3ccc(-c4cnc([C@@H]5CCCN5C(=O)[C@@H](Nc5cccnc5)C(C)C)[nH]4)cc3)cc2)[nH]1)C(C)C` [cj-20, methyl ((1S)-2-methyl-1-(((2S)-2-(5-(4′-(2-((2S)-1-(N-3-pyridinyl-L-valyl)-2-pyrrolidinyl)-1H-imidazol-5-yl)-4-biphenylyl)-1H-imidazol-2-yl)-1-pyrrolidinyl)carbonyl)propyl)carbamate], the EC50 is reported as 0.001 to 0.999 nM.
Compound `COCC(=O)N[C@H](C(=O)N1CCC[C@H]1c1nc(-c2ccc(-c3ccc(-c4c[nH]c([C@@H]5CCCN5C(=O)[C@@H](NC(=O)COC)C(C)C)n4)cc3)cc2)c[nH]1)C(C)C` [Example F62, 2-methoxy-N-((1S)-1-(((2S)-2-(4-(4′-(2-((2S)-1-((2S)-2-((methoxyacetyl)amino)-3-methylbutanoyl)-2-pyrrolidinyl)-1H-imidazol-4-yl)-4-biphenylyl)-1H-imidazol-2-yl)-1-pyrrolidinyl)carbonyl)-2-methylpropyl)acetamide] has an EC50 of 1 to 99 nM.
`CCOC(=O)c1nc([C@@H]2CCCN2C(=O)[C@@H](c2ccccc2)N(C)C)[nH]c1-c1ccc(-c2ccc(-c3cnc([C@@H]4CCCN4C(=O)[C@@H](c4ccccc4)N(C)C)[nH]3)cc2)cc1` [Example J20, ethyl 2-((2S)-l-((2R)-2-(dimethylamino)-2-phenylacetyl)-2-pyrrolidinyl)-5-(4-(2-((2S)-1-((2R)-2-(dimethylamino)-2-phenylacetyl)-2-pyrrolidinyl)-1H-imidazol-5-yl)-4-biphenylyl)-1H-imidazole-4-carboxylate] showed an EC50 of 0.001 to 0.999 nM.
`COC(=O)N[C@@H](Cc1cn(C)cn1)C(=O)N1CCC[C@H]1c1ncc(-c2ccc(-c3ccc(-c4cnc([C@@H]5CCCN5C(=O)[C@@H](NC(=O)OC)[C@@H](C)OC)[nH]4)cc3)cc2)[nH]1` [cj-43, methyl ((1S)-2-((2S)-2-(5-(4′-(2-((2S)-1-((2S,3R)-3-methoxy-2-((methoxycarbonyl)amino)butanoyl)-2-pyrrolidinyl)-1H-imidazol-5-yl)-4-biphenylyl)-1H-imidazol-2-yl)-1-pyrrolidinyl)-1-((1-methyl-1H-imidazol-4-yl)methyl)-2-oxoethyl)carbamate] gave an EC50 of 0.001 to 0.999 nM.
In the case of `COC(=O)N[C@@H](C(=O)N1CCC[C@H]1c1ncc(-c2ccc(-c3ccc(-c4cnc([C@@H]5CCCN5C(=O)[C@H](NC(=O)OC)c5ccccc5)[nH]4)cn3)cc2)[nH]1)c1ccccc1` [Example 134, methyl ((1R)-2-((2S)-2-(5-(6-(4-(2-((2S)-1-((2R)-2-((methoxycarbonyl)amino)-2-phenylacetyl)-2-pyrrolidinyl)-1H-imidazol-5-yl)phenyl)-3-pyridinyl)-1H-imidazol-2-yl)-1-pyrrolidinyl)-2-oxo-1-phenylethyl)carbamate], the EC50 is reported as 0.001 to 0.999 nM.
Compound `CCCN(CCC)[C@@H](C)C(=O)N1CCC[C@H]1c1ncc(-c2ccc(-c3ccc(-c4cnc([C@@H]5CCCN5C(=O)[C@@H](c5ccccc5)N(CC)CC)[nH]4)cc3)cc2)[nH]1` [Example M43, N-((1S)-2-((2S)-2-(5-(4′-(2-((2S)-1-((2R)-2-(diethylamino)-2-phenylacetyl)-2-pyrrolidinyl)-1H-imidazol-5-yl)-4-biphenylyl)-1H-imidazol-2-yl)-1-pyrrolidinyl)-1-methyl-2-oxoethyl)-N-propyl-1-propanamine] has an EC50 of 1 to 99 nM.
With `COC(=O)N[C@@H](C)C(=O)N1CCC[C@H]1c1ncc(-c2ccc(-c3cc(F)c(-c4cnc([C@@H]5CCCN5C(=O)[C@H](C)NC(=O)OC)[nH]4)cc3F)cc2)[nH]1` [Example D52, methyl ((1S)-2-((2S)-2-(5-(2′5′-difluoro-4′-(2-((2S)-1-(N-(methoxycarbonyl)-L-alanyl)-2-pyrrolidinyl)-1H-imidazol-5-yl)-4-biphenylyl)-1H-imidazol-2-yl)-1-pyrrolidinyl)-1-methyl-2-oxoethyl)carbamate] the EC50 was 0.001 to 0.999 nM.
For `COC(=O)N[C@@H](C)C(=O)N1CCC[C@H]1c1ncc(-c2ccc(-c3ccc(-c4cnc([C@@H]5CCCN5C(=O)[C@H](Cc5ccccn5)NC(=O)OC)[nH]4)cc3)cc2)[nH]1` [cj-66, methyl ((1S)-2-((2S)-2-(5-(4′-(2-((2S)-1-(N-(methoxycarbonyl)-L-alanyl)-2-pyrrolidinyl)-1H-imidazol-5-yl)-4-biphenylyl)-1H-imidazol-2-yl)-1-pyrrolidinyl)-2-oxo-1-(2-pyridinylmethyl)ethyl)carbamate], the EC50 was 0.001 to 0.999 nM.
Work on `CN(C)c1ccc(C(=O)N2CCC[C@H]2c2ncc(-c3ccc(-c4ccc(-c5cnc([C@@H]6CCCN6C(=O)[C@@H](c6ccccc6)N6CCCCC6)[nH]5)cc4)cc3)[nH]2)cc1` [Example 107-4, N,N-dimethyl-4-(((2S)-2-(5-(4′-(2-((2S)-1-((2R)-2-phenyl-2-(1-piperidinyl)acetyl)-2-pyrrolidinyl)-1H-imidazol-5-yl)-4-biphenylyl)-1H-imidazol-2-yl)-1-pyrrolidinyl)carbonyl)aniline] yielded an EC50 of 0.001 to 0.999 nM.
For `COC(=O)N[C@H]1CC[C@@H](C(=O)N2CCC[C@H]2c2ncc(-c3ccc(-c4ccc(-c5cnc([C@@H]6CCCN6C(=O)[C@H](NC(=O)OC)c6ccccc6)[nH]5)cc4)cc3)[nH]2)C1` [cj-63, methyl ((1R)-2-((2S)-2-(5-(4′-(2-((2S)-1-(((1R,3S)-3-((methoxycarbonyl)amino)cyclopentyl)carbonyl)-2-pyrrolidinyl)-1H-imidazol-5-yl)-4-biphenylyl)-1H-imidazol-2-yl)-1-pyrrolidinyl)-2-oxo-1-phenylethyl)carbamate], the EC50 was 0.001 to 0.999 nM.
`CCN(CC)[C@H](C)C(=O)N1CCC[C@H]1c1ncc(-c2ccc(-c3ccc(-c4cnc([C@@H]5CCCN5C(=O)[C@@H](C)N(CC)CC)[nH]4)cc3)cc2)[nH]1` [Example M9, (2R,2′R)-1,1′-(4,4′-biphenyldiylbis(1H-imidazole-5,2-diyl(2S)-2,1-pyrrolidinediyl))bis(N,N-diethyl-1-oxo-2-propanamine)] gave an EC50 of 100 to 999 nM.
`COC(=O)N[C@H](C(=O)N1CCC[C@H]1c1ncc(-c2ccc(-c3ccc(-c4cnc([C@@H]5CCCN5C(=O)[C@H](Nc5ncccn5)C(C)C)[nH]4)cc3)cc2)[nH]1)C(C)C` [cj-11i, methyl ((1S)-2-methyl-1-(((2S)-2-(5-(4′-(2-((2S)-1-(N-2-pyrimidinyl-D-valyl)-2-pyrrolidinyl)-1H-imidazol-5-yl)-4-biphenylyl)-1H-imidazol-2-yl)-1-pyrrolidinyl)carbonyl)propyl)carbamate] was tested, and the EC50 was 0.001 to 0.999 nM.
`CCN(CC)[C@@H](C(=O)N1CCC[C@H]1c1ncc(-c2ccc(-c3ccc(-c4cnc([C@@H]5CCCN5C(=O)C(C)(C)NC(=O)OC)[nH]4)cc3)cc2)[nH]1)c1ccccc1` [Example M34, methyl (2-((2S)-2-(5-(4′-(2-((2S)-1-((2R)-2-(diethylamino)-2-phenylacetyl)-2-pyrrolidinyl)-1H-imidazol-5-yl)-4-biphenylyl)-1H-imidazol-2-yl)-1-pyrrolidinyl)-1,1-dimethyl-2-oxoethyl)carbamate] was tested, and the EC50 was 1 to 99 nM.
In the case of `CC(C)C[C@@H](C(=O)N1CCC[C@H]1c1nc(-c2ccc(-c3ccc(-c4cnc([C@@H]5CCCN5C(=O)[C@H](CC(C)C)N(C)C(=O)OC(C)(C)C)[nH]4)cc3)cc2)c[nH]1)N(C)C(=O)OC(C)(C)C` [Example F28, tert-butyl ((1S)-1-(((2S)-2-(5-(4′-(2-((2S)-1-((2S)-2-((tert-butoxycarbonyl)(methyl)amino)-4-methylpentanoyl)-2-pyrrolidinyl)-1H-imidazol-4-yl)-4-biphenylyl)-1H-imidazol-2-yl)-1-pyrrolidinyl)carbonyl)-3-methylbutyl)methylcarbamate], the EC50 is reported as 1 to 99 nM.
Work on `O=C(Nc1cccnc1)N[C@@H](C(=O)N1CCC[C@H]1c1ncc(-c2ccc(-c3ccc(-c4c[nH]c([C@@H]5CCCN5C(=O)[C@H]5CCCO5)n4)cc3)cc2)[nH]1)c1ccccc1` [Example 120-9, 1-((1R)-2-oxo-1-phenyl-2-((2S)-2-(5-(4′-(2-((2S)-1-((2R)-tetrahydro-2-furanylcarbonyl)-2-pyrrolidinyl)-1H-imidazol-4-yl)-4-biphenylyl)-1H-imidazol-2-yl)-1-pyrrolidinyl)ethyl)-3-(3-pyridinyl)urea] yielded an EC50 of 0.001 to 0.999 nM.
For `COC(=O)NCC(=O)N1CCC[C@H]1c1ncc(-c2ccc(-c3ccc(-c4cnc([C@@H]5CCCN5C(=O)[C@H](NC(=O)OC)c5ccccc5)[nH]4)cc3)cc2)[nH]1` [Example 40, methyl (2-((2S)-2-(5-(4′-(2-((2S)-1-((2R)-2-((methoxycarbonyl)amino)-2-phenylacetyl)-2-pyrrolidinyl)-1H-imidazol-5-yl)-4-biphenylyl)-1H-imidazol-2-yl)-1-pyrrolidinyl)-2-oxoethyl)carbamate], the EC50 was 0.001 to 0.999 nM.
Work on `COC(=O)N[C@@H](C(=O)N1CCC[C@H]1c1ncc(-c2ccc(-c3ccc(-c4cnc([C@@H]5CCCN5C(=O)C(=O)N(C)C)[nH]4)cc3)cc2)[nH]1)c1ccccc1` [Example 73, methyl ((1R)-2-((2S)-2-(5-(4′-(2-((2S)-1-((dimethylamino)(oxo)acetyl)-2-pyrrolidinyl)-1H-imidazol-5-yl)-4-biphenylyl)-1H-imidazol-2-yl)-1-pyrrolidinyl)-2-oxo-1-phenylethyl)carbamate] yielded an EC50 of 0.001 to 0.999 nM.
